The source of these data is publication PMC12670405, “Second-Generation AURKA-Targeting PROTACs: Structural Optimization toward in Vivo Degradation in Neuroblastoma” (Journal of Medicinal Chemistry, 2025).

In assay [1] the test system is SJNB-8. In words: IncuCyte live-cell imaging, antiproliferative effect. In kind it is cell-based. To be noted: Homo sapiens, 72 h, read-out: Cell GI50 72h, SJNB-8. In outline: (§1)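 Cells seeded in 384-well plates (neuroblastoma 1200–5000, HEK293T 600 cells/well), adhered overnight, then compound-treated in duplicate or triplicate; confluency tracked by IncuCyte live-cell imaging. Normalized confluence averaged from 3 experiments; absolute GI50 interpolated from four-parameter variable-slope curves.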

Assay [2] deals with SK-N-AS. The assay is described as above. To be noted: Homo sapiens, 72 h, read-out: Cell GI50 72h. In kind it is cell-based. An outline of the steps:
as §1

Assay [3] has as its system IMR-32. Described as above. It is filed as cell-based. To be noted: Homo sapiens, IMR-32, 72 h, read-out: Cell GI50 72h, IMR-32. An outline of the steps:
as §1

For assay [4], the system named is RPE. Described as above. It is filed as cell-based. To be noted: 72 h, read-out: Cell GI50 72h.
Assay [5] relates to SK-N-SH. The assay is described as above. It is filed as cell-based. To be noted: Homo sapiens, 72 h, read-out: Cell GI50 72h. An outline of the steps:
as §1

For assay [6], the system named is HEK293T. The description is as above. In kind it is cell-based. To be noted: Homo sapiens, HEK-293T, 72 h, read-out: Cell GI50 72h. An outline of the steps:
as §1

Assay [7] relates to NGP. The assay is described as above. It is filed as cell-based. To be noted: Homo sapiens, 72 h, read-out: Cell GI50 72h, NGP (Figure 4B). In outline:
as §1

Assay [8] addresses T1, NanoLuc-AURKA (Homo sapiens, UniProt O14965).
T1 construct: Plasmids encoding full-length wild-type AURKA fused to Nano-Luc; host or cells: HEK293T
T1 sequence (O14965 1-403): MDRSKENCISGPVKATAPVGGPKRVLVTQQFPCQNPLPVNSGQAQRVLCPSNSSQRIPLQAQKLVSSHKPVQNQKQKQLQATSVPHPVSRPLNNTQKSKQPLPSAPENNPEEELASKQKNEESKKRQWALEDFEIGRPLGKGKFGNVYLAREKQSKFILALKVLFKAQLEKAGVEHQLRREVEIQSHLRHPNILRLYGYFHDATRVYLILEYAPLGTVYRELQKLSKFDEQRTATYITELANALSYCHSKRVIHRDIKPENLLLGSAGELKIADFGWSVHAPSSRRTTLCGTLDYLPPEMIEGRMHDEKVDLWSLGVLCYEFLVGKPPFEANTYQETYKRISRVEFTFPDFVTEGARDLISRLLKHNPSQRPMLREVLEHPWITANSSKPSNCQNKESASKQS
The assay can be described thus: NanoBRET target engagement, permeabilized mode. It is filed as binding. To be noted: permeabilized HEK293T. As to the method:
(§2) The NanoBRET Target Engagement Assay (Promega) was performed according to the recommended instructions from the manufacturer. Plasmids encoding full-length wild-type AURKA fused to Nano-Luc via AURKA’s C-terminus (Promega, #NV1041) were transfected into HEK293T cells using FuGENE HD (Promega, #E2312). […] The plate was mixed at 900 rpm for 15 s, using an orbital shaker. For the permeabilized-mode, digitonin (Sigma-Aldrich, #D141) was additionally added at a final concentration of 50 μg/mL. Test compounds were subsequently administered in duplicate using the D300e digital dispenser (Tecan), followed by incubation for 2 h (37 °C, 5% CO2). To measure BRET, nanoglo substrate and extracellular nanoluc inhibitor (only in live-mode) (Promega #N2540) were added, and luminescence was measured using the GloMax Discover Microplate Reader (Promega) with a luminescence filter pair of 450 nm (BP filter, donor) and 600 nm (LP filter, acceptor). The NanoBRET ratio was calculated using the following formula: BRET ratio = 1000*[(acceptor signal/donor signal)with tracer – (acceptor signal/donor signal)no tracer]. Relative BRET ratios (%) were generated by normalizing to the negative DMSO control. The experiment was performed once with 2 replicate samples.
(§3) All dose–response curves were computed on GraphPad Prism using the Variable Slope (four parameters) equation. Absolute half-maximal degradation (DC50), growth inhibitory (GI50) and enzymatic inhibitory (IC50) concentrations, as well as inhibition constants (Ki) were derived from dose–response curves via interpolation. Statistical tests were performed on GraphPad Prism and detailed in the figure legends. Unless otherwise stated, “n” in the figure legends indicates the number of independent experiments conducted at different times.

The subject of assay [9] is SK-N-BE(2)-C. The assay can be described thus: IncuCyte live-cell imaging, antiproliferative effect. In kind it is cell-based, human. To be noted: Homo sapiens, SK-N-BE(2)-C, 72 h, read-out: Cell GI50 72h.
Text: Human neuroblastoma cell lines NGP, IMR-32, SJNB-8, SK-N-BE(2)-C, SJNB-1, SK-N-SH and SK-N-AS, as well as benign immortalized cell lines RPE and HEK293T were either bought commercially or obtained through research laboratories. […] Screening for mycoplasma contamination occurred routinely on the cells. Human neuroblastoma cell lines SH-SY5Y_shABCB1 & SH-SY5Y_shNTC were generated by transduction with pLKO.1-ABCB1_TRCN0000059683 shRNA (Sigma MISSION SHCLND) or pLKO.1-puro NT shRNA (Sigma MISSION SHC002) vectors respectively (Supplementary Table S6), packaged using Lenti-X293T (Clontech). Transduced cells were selected with 2 μg/mL puromycin. These cells were cultured in DMEM 4.5 g/L D-Glucose, L-Glutamine and 110 mg/L Sodium Pyruvate (Gibco, #11995065) supplemented with 10% fetal bovine serum, 1× Antibiotic-Antimycotic solution (Sigma-Aldrich, #A5955) and 1× MEM nonessential amino acids (Sigma-Aldrich, #M7145). Incubation of all cells occurred at 37 °C and 5% CO2.
Neuroblastoma cells were seeded in 384-well plates at different densities ranging from 1200 to 5000 cells/well and allowed to adhere overnight. RPE and HEK293T were seeded at 200 and 600 cells/well, respectively. Compound treatment was performed using the D300e Digital Dispenser (Tecan) in duplicate or triplicate and cell confluency was monitored over time using the IncuCyte Live-cell imaging system (Sartorius). […] Mean normalized confluences were calculated from 3 individual experiments.
as §3

In assay [10] the target is T1, NanoLuc-AURKA. The assay can be described thus: NanoBRET target engagement, live (intact) cells. To be noted: intact HEK293T. In kind it is cell-based. As to the method: as §2, §3
A general note: BRET reads energy transfer from a luciferase to a nearby fluorophore.

As usually defined, the GI50 is the concentration at which growth is held to half of that of the control. In the case of `O=C(O)[C@]1(Cc2cccc(Nc3nccs3)n2)CC[C@@H](Oc2cccc(Cl)c2F)CC1` [MK-5108, reference compound], the GI50 in assay [1] is 0.348 µM; in assay [2] it was 0.911 µM; in [3], 0.119 µM; in [4], 0.953 µM; in assay [5] it was 0.249 µM; in [6] it was 1.31 µM. The values for the GI50 in assay [7] and in assay [9] were 0.263 µM and 0.302 µM, respectively. Moreover, in [8], the “potency relative to SK4454 and SK5527 in NanoBRET” value is given as “at least 10 times”. Besides, the “NanoLuc-AURKA engagement in intact cells (in words)” value in [10] is given as “stronger AURKA engagement than TAS-119”.
For `Cc1cc(Nc2nc(CC3(C(=O)O)CCN(C(=O)c4cccc(Cl)c4Cl)CC3)ccc2F)n[nH]1` [TAS-119, reference compound], the 50% growth inhibitory concentration (GI50) in [1] came out at 0.044 µM; in [2], 0.134 µM; in assay [3], 0.011 µM; in assay [4] it was 0.25 µM; in [5], 0.03 µM; in assay [6], 0.184 µM. Further, the GI50 in [7] was determined as 0.02 µM; in [9], 0.057 µM. Moreover, the “potency relative to SK4454 and SK5527 in NanoBRET” value in assay [8] is recorded as “at least 10 times”.
